One test has as its system thale cress. In words: Plant growth inhibition index, thale cress on agar medium in test tube (Evaluation 8, 9). The class given is in vivo, thale cress (Col-0, wild-type strain). More on the design: key: 0: No effect; 1: Growth of the root part was inhibited 50% or less compared with non-treated area.; 2: Growth of the root part was inhibited 50% or more compared with non-treated area.; 3: Growth of the root part was substantially inhibited.; 4: Germination was inhibited. The following applies: for Index: Concentration 200 μM, 8 days (Evaluation 9, Table 2). On the procedure: 0.44% (w/v) Mixed salts for Murashige and Skoog medium (SIGMA), 1% (w/v) sucrose, and 0.05% (w/v) MES were mixed, and pH of the solution was adjusted to pH 5.7 with potassium hydroxide. 1.5% (w/v) Agar was added to the mixture, which was sterilized at 120° C. in an autoclave for 20 minutes. The test compound and dimethylformamide containing 1.5% of polyoxyethylenesorbitan monolaurate for a control experiment, were added at this stage and blended. In addition, the compound was used by adjusting an addition concentration to 200 μM. Four ml each of the medium was dispensed in sterile glass test tube ([…] RIKA GLASS CO., LTD.) to prepare agar medium.
As a plant material, Col-0, which is a wild-type strain of thale cress, was used.
Seeds, after their surfaces were sterilized, were planted on the agar medium, and the growth of the plant was carried out in a plant incubator (CFH-405) under the conditions of an illuminance of 3 at 23° C. with constant light. The plants on the agar medium were grown for 8 days in the chamber.
The plant growth inhibition effect of the compounds was evaluated by conversion to indexes according to the following investigation criteria.

Test [1] has as its system velvet leaf. The experiment in a line: Seed treatment, plant growth inhibition index (Evaluation 11). The class given is in vivo. The arrangement: key: 0: No effect; 1: Growth of the root part was inhibited 50% or less compared with non-treated area.; 2: Growth of the root part was inhibited 50% or more compared with non-treated area.; 3: Growth of the root part was substantially inhibited.; 4: Germination was inhibited. On the procedure:
(§1) The compound of the present invention (2 mg) was dissolved in a 1.5% Tween dimethylformamide solution (100 μL) to use as a test chemical solution.
(§2) Eight mL of sterilized water was poured to a cherry cup (100Φ×45 mm) lined with a filter paper, subsequently 81.1 μL of the sterilized water was removed, and 81.1 μL of the test chemical solution was added such that a final concentration of the compound was 800 μM.
(§3) Further, cherry cups were similarly prepared such that a final concentration of the compound was 200 μM.
(§4) Seeds (Japanese millet: 3 grains, velvet leaf: 6 grains, Ragweed: 8 grains, morning glory: 2 grains) were planted on the filter paper in the cherry cups, followed by growing the plants in a thermostatic chamber at 25° C. under a light-dark cycle in which a light period is 12 hours and a dark period is 12 hours for 6 days.
(§5) In addition, with regards to the compound (9a) and the compound (9b), the plants were tested for 7 days.
(§6) Plant growth inhibition effects of the compounds were evaluated by conversion to indexes according to the following investigation criteria.

Another test has as its system Ragweed. The test is described as above. It is filed as in vivo. The arrangement: key: 0: No effect; 1: Growth of the root part was inhibited 50% or less compared with non-treated area.; 2: Growth of the root part was inhibited 50% or more compared with non-treated area.; 3: Growth of the root part was substantially inhibited.; 4: Germination was inhibited. On the procedure: as §1, §2, §3, §4, §5, §6

Another test concerns Japanese millet. The description is as above. The class given is in vivo. The arrangement: key: 0: No effect; 1: Growth of the root part was inhibited 50% or less compared with non-treated area.; 2: Growth of the root part was inhibited 50% or more compared with non-treated area.; 3: Growth of the root part was substantially inhibited.; 4: Germination was inhibited. On the procedure:
as §1, §2, §3, §4, §5, §6

The test system of the next test is morning glory. Described as above. It is filed as in vivo. The arrangement: key: 0: No effect; 1: Growth of the root part was inhibited 50% or less compared with non-treated area.; 2: Growth of the root part was inhibited 50% or more compared with non-treated area.; 3: Growth of the root part was substantially inhibited.; 4: Germination was inhibited. On the procedure:
as §1, §2, §3, §4, §5, §6

Another test concerns southern crabgrass. In words: Spray treatment to stems and leaves, killing weed index (Evaluation 10). The following applies: 2000 g active ingredient per hectare, two weeks later. The class given is in vivo. On the procedure:
(§7) POA allyl phenyl ether (4.1 parts by weight), POE-POP glycol (1 part by weight), POE sorbitan laurate (0.8 parts by weight), glycerin (2.6 parts by weight), dimethylformamide (65.9 parts by weight), N-methylpyrrolidone (5.1 parts by weight), cyclohexanone (15.4 parts by weight), and aromatic hydrocarbon (5.1 parts by weight) were mixed and dissolved to prepare an emulsion. The compounds of the present invention (4 mg) were dissolved in this emulsion (100 μL) to prepare a test emulsion. In addition, POA means “polyoxyalkylene”, POE means “polyoxyethylene”, and POP means “polyoxypropylene.”
(§8) Four hundred μL of the above test emulsion was diluted with 7600 μL of water to use as a test spray liquid.
(§9) Further, 400 μL of the above test emulsion was diluted with 1600 μL of a 1% Tween20 aqueous solution to use as a spray liquid for a small amount spray test.
(§10) For a comparative spray liquid, 53 μL of a 30% pendimethalin emulsion (Gogosan emulsion: manufactured by BASF Japan) as a control pesticides was diluted with 7947 μL of water. Further, for a comparative spray liquid for a small amount spray test, 53 μL of the 30% pendimethalin emulsion was diluted with 1947 μL of water.
(§11) A 150 cm^2 pot was filled with a soil, seeds of each purple amaranth, Japanese bristlegrass, southern crabgrass, and velvet leaf were sown on the surface layer, lightly covered with a soil and grown in a greenhouse. When each plant grew to a plant height of 2 to 9 cm, the test spray liquid was sprayed to the stem and leaf parts with a small spraying machine such that an active ingredient amount was 2000 g per hectare and a sprayed liquid amount was 1000 L per hectare.
(§12) Similarly, the test spray liquid for a small amount spray test was sprayed to the stem and leaf parts with a small spraying machine such that an active ingredient amount was 2000 g per hectare and a sprayed liquid amount was 250 L per hectare.
(§13) Two weeks later, the above-ground grass weight in non-treated areas and the above-ground grass weight in treated areas, by the weed, were measured to calculate a killing weed rate by the following calculating formula.
(§14) (a) Calculating Formula of Weeding Rate Killing weed rate (%)=(above-ground grass weight in non-treated area−above-ground grass weight in treated area)/(above-ground grass weight in non-treated area)×100 (b) Killing Weed Indexes
(§15) The obtained killing weed rates were evaluated, such that a killing weed index was “10” when a killing weed rate is 100%, as “9” when a killing weed rate is 99% to 90%, “8” when a killing weed rate is 89% to 80%, “7” when a killing weed rate is 79% to 70%, “6” when a killing weed rate is 69% to 60%, “5” when a killing weed rate is 59% to 50%, “4” when a killing weed rate is 49% to 40%, “3” when a killing weed rate is 39% to 30%, “2” when a killing weed rate is 29% to 20%, “1” when a killing weed rate is 19% to 10%, and “0” when a killing weed rate is 9% to 0%.

The subject of test [2] is velvet leaf. The description is as above. It is filed as in vivo. The following applies: 2000 g active ingredient per hectare, two weeks later. On the procedure:
as §7, §8, §9, §10, §11, §12, §13, §14, §15

Another test deals with Japanese bristlegrass. Described as above. The class given is in vivo. The note with it: 2000 g active ingredient per hectare, two weeks later. On the procedure:
as §7, §8, §9, §10, §11, §12, §13, §14, §15

Another test deals with purple amaranth. The description is as above. The class given is in vivo. The following applies: 2000 g active ingredient per hectare, two weeks later. On the procedure:
as §7, §8, §9, §10, §11, §12, §13, §14, §15

Setting [3] is: 200 μM, 6 days (9a, 9b: 7 days).
The mark [4] stands for this setting: sprayed liquid amount 1000 L/ha.

The results in this text go back to patent US11685716B2, “Plant growth inhibiting agent, and plant growth inhibiting method using same” (NATIONAL UNIVERSITY CORPORATION KUMAMOTO UNIVERSITY, priority 2017, dated 2023).

For the compound `CCCCCCCCCOn1cccc1C(=O)O` [Compound 8b], the “index on the plant growth inhibition effect” value in the test on thale cress (200 μM, 8 days (Evaluation 8)) worked out at 4. Further, the “plant growth inhibition index, Velvet leaf” value with velvet leaf [1] (setting [3]) is 0; in the test on velvet leaf [1] (800 μM, 6 days), 8 (Growth of the stem and leave parts was inhibited 80% or more compared with non-treated area.). Further, the “plant growth inhibition index, Ragweed” value with Ragweed (setting [3]) is 3 (Growth of the stem and leave parts was inhibited 30% or more compared with non-treated area, or growth of the only root part was inhibited 60% or more compared with non-treated area.); in the test on Ragweed (800 μM, 6 days) it was 9 (Growth of the stem and leave parts was inhibited 90% or more compared with non-treated area.). Moreover, the “plant growth inhibition index, Japanese millet” value in the test on Japanese millet (setting [3]) was 3 (Growth of the stem and leave parts was inhibited 30% or more compared with non-treated area, or growth of the only root part was inhibited 60% or more compared with non-treated area.); in the test on Japanese millet (800 μM, 6 days) it was 10. The “plant growth inhibition index, Morning glory” value is 3 (Growth of the stem and leave parts was inhibited 30% or more compared with non-treated area, or growth of the only root part was inhibited 60% or more compared with non-treated area.) with morning glory (setting [3]); 8 (Growth of the stem and leave parts was inhibited 80% or more compared with non-treated area.) with morning glory (800 μM, 6 days). The “killing weed index, Southern crabgrass” value in the test on southern crabgrass (sprayed liquid amount 250 L/ha) is given as 2 (“2” when a killing weed rate is 29% to 20%); with southern crabgrass (setting [4]), 4 (“4” when a killing weed rate is 49% to 40%). Besides, the entries for the “killing weed index, Velvet leaf” value with velvet leaf [2] (sprayed liquid amount 250 L/ha) and in the test on velvet leaf [2] (setting [4]) were 6 (“6” when a killing weed rate is 69% to 60%) and 0 (“0” when a killing weed rate is 9% to 0%), respectively. Also, the “killing weed index, Japanese bristlegrass” value with Japanese bristlegrass (sprayed liquid amount 250 L/ha) and in the test with Japanese bristlegrass (setting [4]) was 5 (“5” when a killing weed rate is 59% to 50%) throughout. In addition, the “killing weed index, Purple amaranth” value is on record as 8 (“8” when a killing weed rate is 89% to 80%) in the test with purple amaranth (sprayed liquid amount 250 L/ha) and 3 (“3” when a killing weed rate is 39% to 30%) in the test with purple amaranth (setting [4]).

`CCCCCOn1cc(-c2ccccc2)cc1C(=O)O` [Compound 9a, 1-Pentyloxy-4-phenyl-1H-pyrrole-2-carboxylic acid] displayed an Index with thale cress of 4. For the same compound, the “plant growth inhibition index, Velvet leaf” value with velvet leaf [1] (setting [3]) was found to be 0. Moreover, the “plant growth inhibition index, Ragweed” value with Ragweed (setting [3]) was 0. For the same compound, the “plant growth inhibition index, Japanese millet” value in the test with Japanese millet (setting [3]) is 3 (Growth of the stem and leave parts was inhibited 30% or more compared with non-treated area, or growth of the only root part was inhibited 60% or more compared with non-treated area.). The “plant growth inhibition index, Morning glory” value in the test on morning glory (setting [3]) is 0. Further, the “killing weed index, Southern crabgrass” value in the test on southern crabgrass (sprayed liquid amount 250 L/ha) was 2 (“2” when a killing weed rate is 29% to 20%). In addition, in the test with velvet leaf [2] (sprayed liquid amount 250 L/ha), the “killing weed index, Velvet leaf” value was 3 (“3” when a killing weed rate is 39% to 30%). For the same compound, the “killing weed index, Japanese bristlegrass” value in the test on Japanese bristlegrass (sprayed liquid amount 250 L/ha) is recorded as 3 (“3” when a killing weed rate is 39% to 30%). In addition, the “killing weed index, Purple amaranth” value in the test with purple amaranth (sprayed liquid amount 250 L/ha) was 8 (“8” when a killing weed rate is 89% to 80%).

`CCCCCCCCCOn1cc(Cl)cc1C(=O)O` [Compound 9b]: the Index with thale cress amounted to 3. The “plant growth inhibition index, Velvet leaf” value in the test on velvet leaf [1] (setting [3]) is given as 0. Moreover, the “plant growth inhibition index, Ragweed” value in the test with Ragweed (setting [3]) came out at 0. Further, the “plant growth inhibition index, Japanese millet” value with Japanese millet (setting [3]) stood at 0. Further, the “plant growth inhibition index, Morning glory” value with morning glory (setting [3]) is 3 (Growth of the stem and leave parts was inhibited 30% or more compared with non-treated area, or growth of the only root part was inhibited 60% or more compared with non-treated area.). For the same compound, the “killing weed index, Southern crabgrass” value with southern crabgrass (sprayed liquid amount 250 L/ha) is 2 (“2” when a killing weed rate is 29% to 20%). For the same compound, the “killing weed index, Velvet leaf” value in the test with velvet leaf [2] (sprayed liquid amount 250 L/ha) is recorded as 2 (“2” when a killing weed rate is 29% to 20%). Also, the “killing weed index, Japanese bristlegrass” value with Japanese bristlegrass (sprayed liquid amount 250 L/ha) is listed as 3 (“3” when a killing weed rate is 39% to 30%). Further, the “killing weed index, Purple amaranth” value in the test on purple amaranth (sprayed liquid amount 250 L/ha) is recorded as 10 (“10” when a killing weed rate is 100%).

For the compound `CCCCCCCCCOn1cccc1C(=O)NC` [Compound 9d], in the test on thale cress, the Index was 3. Moreover, the “plant growth inhibition index, Velvet leaf” value in the test on velvet leaf [1] (setting [3]) was 0. For the same compound, the “plant growth inhibition index, Ragweed” value with Ragweed (setting [3]) was 3 (Growth of the stem and leave parts was inhibited 30% or more compared with non-treated area, or growth of the only root part was inhibited 60% or more compared with non-treated area.). In the test with Japanese millet (setting [3]), the “plant growth inhibition index, Japanese millet” value is 3 (Growth of the stem and leave parts was inhibited 30% or more compared with non-treated area, or growth of the only root part was inhibited 60% or more compared with non-treated area.). Further, the “plant growth inhibition index, Morning glory” value in the test on morning glory (setting [3]) came to 0. Besides, the “killing weed index, Southern crabgrass” value in the test with southern crabgrass (sprayed liquid amount 250 L/ha) is listed as 3 (“3” when a killing weed rate is 39% to 30%); in the test with southern crabgrass (setting [4]), 2 (“2” when a killing weed rate is 29% to 20%). In addition, the “killing weed index, Velvet leaf” value in the test with velvet leaf [2] (sprayed liquid amount 250 L/ha) was 3 (“3” when a killing weed rate is 39% to 30%); with velvet leaf [2] (setting [4]), 0 (“0” when a killing weed rate is 9% to 0%). For the same compound, the “killing weed index, Japanese bristlegrass” value with Japanese bristlegrass (sprayed liquid amount 250 L/ha) is 2 (“2” when a killing weed rate is 29% to 20%); in the test on Japanese bristlegrass (setting [4]), 1 (“1” when a killing weed rate is 19% to 10%). For the same compound, the “killing weed index, Purple amaranth” value with purple amaranth (sprayed liquid amount 250 L/ha) and with purple amaranth (setting [4]) was 0 (“0” when a killing weed rate is 9% to 0%) in each case.
